# From ChEMBL document CHEMBL1201862, “PubChem BioAssay data set” (2004)
# Activity calls are given as the source filed them.
# Key:
# [1] = target: T1, Zinc finger protein mex-5 (Caenorhabditis elegans, UniProt Q9XUB2); assay: MEX-5/TCR-2 RNA interaction inhibitors, dose response, biochemical, C. elegans, fluorescence polarization (AID 1960)
# T1 sequence (Q9XUB2 whole entry): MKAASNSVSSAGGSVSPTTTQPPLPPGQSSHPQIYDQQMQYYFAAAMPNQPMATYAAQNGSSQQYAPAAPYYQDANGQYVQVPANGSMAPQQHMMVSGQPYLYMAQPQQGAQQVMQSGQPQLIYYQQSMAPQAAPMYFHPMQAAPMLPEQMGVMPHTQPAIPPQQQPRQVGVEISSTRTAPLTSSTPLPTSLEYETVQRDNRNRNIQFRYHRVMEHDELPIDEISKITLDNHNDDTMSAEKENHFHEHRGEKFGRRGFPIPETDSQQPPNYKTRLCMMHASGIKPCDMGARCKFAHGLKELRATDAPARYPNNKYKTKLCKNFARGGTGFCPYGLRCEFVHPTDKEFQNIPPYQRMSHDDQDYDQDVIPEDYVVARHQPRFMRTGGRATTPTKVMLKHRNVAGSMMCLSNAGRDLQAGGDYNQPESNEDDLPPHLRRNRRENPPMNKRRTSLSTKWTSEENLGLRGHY
# [2] = target: T2, RNA-binding protein pos-1 (Caenorhabditis elegans, UniProt G5EF15); assay: inhibitors of POS-1/mex-3 RNA binding, dose response, biochemical, fluorescence polarization (AID 1964);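 note: purified POS-1 fused to maltose binding protein made in E. coli; potency of compounds blocking POS-1 binding to fluorescent RNA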
# T2 sequence (G5EF15 whole entry): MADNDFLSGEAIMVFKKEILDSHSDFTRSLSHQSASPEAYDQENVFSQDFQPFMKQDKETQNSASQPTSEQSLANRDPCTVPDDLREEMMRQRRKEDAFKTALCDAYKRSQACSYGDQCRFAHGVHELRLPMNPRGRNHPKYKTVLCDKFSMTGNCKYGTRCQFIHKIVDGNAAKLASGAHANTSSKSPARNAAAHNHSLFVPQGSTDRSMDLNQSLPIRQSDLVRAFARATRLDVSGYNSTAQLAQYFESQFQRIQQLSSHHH
# Cytochrome P450 3A4 = Cytochrome P450 3A4 (Homo sapiens, UniProt P08684);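 note: CYP3A4 tested as one member of a cytochrome P450 panel screen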
# Cytochrome P450 2C9 = Cytochrome P450 2C9 (Homo sapiens, UniProt P11712)
# Cytochrome P450 2C19 = Cytochrome P450 2C19 (Homo sapiens, UniProt P33261); assay: Cytochrome panel assay with activity outcomes. Panel member name: p450-cyp2c19 Compounds with AC50 equal or less than 10 uM are considered active; type: functional; settings: read-out: AC50
# [3] = Luminescence Cell-Based Dose Response HTS to Identify Activators of Luciferase Translation or Activity in H4 […] Cells. [Related pubchem assays: 1829 (Project Summary), 1814 (Primary HTS)]; type: functional
# H4 = assay: Luminescence Cell-Based Dose Response HTS to Identify Activators of 5'UTR Stem-Loop Driven Prion Protein mRNA Translation in H4 Neuroglioblastoma Cells. [Related pubchem assays: 1829 (Project Summary), 1814 (Primary HTS)]; type: functional; settings: Homo sapiens
# [4] = control 3'UTR Renilla luciferase suppression, dose response, counter-screen for Shn3 inhibitor project, cell-based, Clone20-Shn3RL, cherry-picked (AID 624133); type: functional
# INS1 = assay: beta cell apoptosis inhibitors, cytokine rescue, dose response, luminescence, retest (AID 449756); type: functional, cell-based; settings: Rattus norvegicus;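 note: cell death triggered by IL-1 beta plus TNF-alpha plus IFN-gamma mixture; protective hits raise ATP signal compared with cytokine alone wells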
# [5] = HepG2 cell cytotoxicity, dose response, cytotoxicity control for Shn3 inhibitor project, CellTiter-Glo, cherry-picked (AID 624134); type: functional, cell-based
# [6] = inhibitors of firefly luciferase expression or activity, dose response, H4 neuroglioma cells, luminescence (AID 1990); type: functional, cell-based
# Nonstructural protein 1 = Nonstructural protein 1 (Influenza A virus, UniProt Q194T2); type: functional, Influenza A virus (A/California/07/2009(H1N1))
# [7] = Shn3 3'UTR reporter inhibitors, dose response, cell-based, Clone20 osteoblasts, firefly luciferase, cherry-picked (AID 624132); type: functional;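 note: firefly luciferase luminescence from reporter carrying the Shn3 3'UTR in osteoblasts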
# [8] = inhibitors of SNCA 5'UTR-driven reporter translation, confirmation, H4 neuroglioma cells, luminescence (AID 1988); type: functional, cell-based
# [9] = Luminescence Cell-Based Dose Retest to Confirm Inhibitors of Cancer Stem Cells. [Related pubchem assays (depositor defined):AID2717, AID2721]; type: functional; settings: Homo sapiens
# [10] = Luminescence Cell-Based Dose Response HTS to Identify Inhibitors of 5'UTR Stem-Loop Driven Prion Protein mRNA Translation in H4 Neuroglioblastoma Cells. [Related pubchem assays: 1827 (Project Summary), 1813 (Primary HTS)]; type: functional
# [11] = target: T3, Rac GTPase-activating protein 1 (Homo sapiens, UniProt Q9H0H5); assay: MgcRacGAP GTPase-activating activity inhibitors, confirmation, biochemical, ADP Hunter fluorescence, primary and confirmatory (AID 624330); type: functional
# T3 sequence (Q9H0H5 whole entry): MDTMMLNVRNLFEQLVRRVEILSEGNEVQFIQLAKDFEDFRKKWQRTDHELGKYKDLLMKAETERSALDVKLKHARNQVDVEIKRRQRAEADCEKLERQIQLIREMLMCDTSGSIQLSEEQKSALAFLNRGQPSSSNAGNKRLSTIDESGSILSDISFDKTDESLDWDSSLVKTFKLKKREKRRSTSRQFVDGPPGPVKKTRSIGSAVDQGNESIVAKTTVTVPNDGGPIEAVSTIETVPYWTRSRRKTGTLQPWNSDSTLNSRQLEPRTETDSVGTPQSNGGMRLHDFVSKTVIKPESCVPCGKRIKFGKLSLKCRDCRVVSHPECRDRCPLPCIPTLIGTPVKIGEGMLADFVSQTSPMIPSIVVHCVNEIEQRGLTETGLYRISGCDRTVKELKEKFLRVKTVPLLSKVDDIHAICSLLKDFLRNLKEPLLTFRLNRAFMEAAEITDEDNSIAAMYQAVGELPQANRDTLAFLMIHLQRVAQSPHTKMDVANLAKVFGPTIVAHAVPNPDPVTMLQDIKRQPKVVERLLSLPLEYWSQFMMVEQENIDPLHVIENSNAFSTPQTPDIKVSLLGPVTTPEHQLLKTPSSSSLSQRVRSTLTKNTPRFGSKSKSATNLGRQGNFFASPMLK
# [12] = growth suppression of PTEN-null colon cells, dose response, cell-based, HCT116 PTEN knockout (AID 1047); type: functional;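 note: HCT116 colon tumor cells with PTEN knocked out; cells exposed to compound for 60 hours before readout; potency for loss of cell viability measured by luminescence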
# Protein RecA = target: T4, Protein RecA (Mycobacterium tuberculosis, UniProt P9WHJ3); assay: Fluorescence Cell-Free Homogeneous Dose Retest to Identify Inhibitors of RecA-Intein Splicing Activity. [Related pubchem assays (depositor defined):AID2097, AID2223, AID489010, AID492950]; type: functional
# T4 sequence (P9WHJ3 whole entry): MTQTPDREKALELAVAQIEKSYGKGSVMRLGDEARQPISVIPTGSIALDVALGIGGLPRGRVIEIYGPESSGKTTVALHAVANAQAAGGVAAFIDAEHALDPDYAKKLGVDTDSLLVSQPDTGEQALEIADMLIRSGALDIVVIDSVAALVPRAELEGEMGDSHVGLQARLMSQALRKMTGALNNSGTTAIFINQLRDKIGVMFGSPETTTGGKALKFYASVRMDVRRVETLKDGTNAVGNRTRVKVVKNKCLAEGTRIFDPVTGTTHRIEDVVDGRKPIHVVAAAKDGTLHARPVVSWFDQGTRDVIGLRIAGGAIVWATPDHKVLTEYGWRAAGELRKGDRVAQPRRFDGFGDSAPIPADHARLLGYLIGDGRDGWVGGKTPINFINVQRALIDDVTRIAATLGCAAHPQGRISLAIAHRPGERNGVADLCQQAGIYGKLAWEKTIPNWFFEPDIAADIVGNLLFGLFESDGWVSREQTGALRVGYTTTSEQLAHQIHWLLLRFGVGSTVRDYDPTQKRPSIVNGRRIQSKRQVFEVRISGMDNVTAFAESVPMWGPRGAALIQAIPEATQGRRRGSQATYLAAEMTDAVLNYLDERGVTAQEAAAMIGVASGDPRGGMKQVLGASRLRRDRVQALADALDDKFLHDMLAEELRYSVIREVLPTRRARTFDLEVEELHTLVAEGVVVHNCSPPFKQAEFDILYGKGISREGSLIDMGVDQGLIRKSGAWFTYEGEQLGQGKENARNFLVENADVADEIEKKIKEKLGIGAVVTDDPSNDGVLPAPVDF
# [13] = target: T5, Replicative DNA helicase DnaB (Mycobacterium tuberculosis, UniProt P9WMR3); assay: DnaB intein splicing inhibitors, dose response, biochemical, cell-free fluorescence (AID 449749); type: functional
# T5 sequence (P9WMR3 whole entry): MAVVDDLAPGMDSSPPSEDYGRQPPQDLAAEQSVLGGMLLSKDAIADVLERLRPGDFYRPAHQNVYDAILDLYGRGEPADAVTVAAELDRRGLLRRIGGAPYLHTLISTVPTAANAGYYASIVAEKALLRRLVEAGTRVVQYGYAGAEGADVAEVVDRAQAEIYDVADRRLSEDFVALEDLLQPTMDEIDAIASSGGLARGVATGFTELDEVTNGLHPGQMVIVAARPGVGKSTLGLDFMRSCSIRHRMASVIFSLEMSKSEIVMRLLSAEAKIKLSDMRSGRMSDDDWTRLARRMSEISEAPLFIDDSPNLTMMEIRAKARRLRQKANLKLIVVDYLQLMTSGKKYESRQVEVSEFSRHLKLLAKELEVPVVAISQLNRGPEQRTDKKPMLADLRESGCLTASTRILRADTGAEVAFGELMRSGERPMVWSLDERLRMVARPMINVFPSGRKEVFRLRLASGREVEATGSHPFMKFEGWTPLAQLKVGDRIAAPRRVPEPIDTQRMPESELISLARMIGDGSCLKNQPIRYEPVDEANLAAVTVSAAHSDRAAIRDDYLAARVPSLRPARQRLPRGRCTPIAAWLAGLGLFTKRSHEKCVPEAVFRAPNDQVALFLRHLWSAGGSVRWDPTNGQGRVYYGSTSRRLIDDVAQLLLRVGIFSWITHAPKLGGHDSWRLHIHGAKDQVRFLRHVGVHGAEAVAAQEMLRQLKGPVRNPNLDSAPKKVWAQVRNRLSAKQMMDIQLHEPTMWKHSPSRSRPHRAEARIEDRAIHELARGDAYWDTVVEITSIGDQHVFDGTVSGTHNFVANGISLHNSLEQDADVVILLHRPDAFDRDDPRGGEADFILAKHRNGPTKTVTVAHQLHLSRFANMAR
# [14] = growth suppression of beta-catenin-knockout colon cells, dose response, cell-based, HCT116, human colon tumor (AID 1045); type: functional;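 note: HCT116 colon tumor cells with beta catenin knocked out; cells exposed to compound for 60 hours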
# [15] = microbe, parasite or virus in culture; type: functional; settings: Mycobacterium tuberculosis
# Sequence of Cytochrome P450 2C9 (P11712 whole entry): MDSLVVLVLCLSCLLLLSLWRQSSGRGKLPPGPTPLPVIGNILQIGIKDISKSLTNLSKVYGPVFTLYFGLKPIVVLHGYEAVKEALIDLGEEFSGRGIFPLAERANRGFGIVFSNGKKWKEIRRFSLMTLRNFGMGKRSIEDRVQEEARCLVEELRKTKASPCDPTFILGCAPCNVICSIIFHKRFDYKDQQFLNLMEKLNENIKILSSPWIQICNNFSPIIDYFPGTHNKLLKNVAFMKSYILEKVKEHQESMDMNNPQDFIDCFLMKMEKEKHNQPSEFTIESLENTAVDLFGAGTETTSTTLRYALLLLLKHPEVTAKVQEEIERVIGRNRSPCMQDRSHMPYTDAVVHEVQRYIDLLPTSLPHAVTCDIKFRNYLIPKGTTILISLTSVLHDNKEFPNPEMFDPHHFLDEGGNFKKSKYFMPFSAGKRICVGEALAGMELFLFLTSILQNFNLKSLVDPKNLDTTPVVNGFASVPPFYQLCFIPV
# Sequence of Cytochrome P450 2C19 (P33261 whole entry): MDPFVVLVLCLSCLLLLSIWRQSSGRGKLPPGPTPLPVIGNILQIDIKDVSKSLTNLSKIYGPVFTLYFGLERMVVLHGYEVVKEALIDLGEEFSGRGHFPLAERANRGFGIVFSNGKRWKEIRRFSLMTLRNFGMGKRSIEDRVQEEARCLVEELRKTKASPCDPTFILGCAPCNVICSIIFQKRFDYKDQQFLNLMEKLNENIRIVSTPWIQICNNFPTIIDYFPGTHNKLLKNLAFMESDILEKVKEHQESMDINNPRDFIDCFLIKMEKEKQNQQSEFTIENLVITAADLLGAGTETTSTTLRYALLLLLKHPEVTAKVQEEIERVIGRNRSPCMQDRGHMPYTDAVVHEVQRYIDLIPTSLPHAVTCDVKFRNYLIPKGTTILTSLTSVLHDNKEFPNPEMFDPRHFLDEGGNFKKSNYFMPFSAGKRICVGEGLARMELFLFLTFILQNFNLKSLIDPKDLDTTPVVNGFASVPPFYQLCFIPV
# Sequence of Nonstructural protein 1 (Q194T2 whole entry): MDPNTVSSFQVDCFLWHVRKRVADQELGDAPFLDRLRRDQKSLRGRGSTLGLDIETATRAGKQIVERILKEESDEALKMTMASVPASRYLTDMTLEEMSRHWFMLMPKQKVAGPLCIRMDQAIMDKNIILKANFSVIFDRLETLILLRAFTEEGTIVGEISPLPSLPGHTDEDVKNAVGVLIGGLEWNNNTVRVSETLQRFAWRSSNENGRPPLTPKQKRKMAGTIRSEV
# Sequence of Cytochrome P450 3A4 (P08684 whole entry): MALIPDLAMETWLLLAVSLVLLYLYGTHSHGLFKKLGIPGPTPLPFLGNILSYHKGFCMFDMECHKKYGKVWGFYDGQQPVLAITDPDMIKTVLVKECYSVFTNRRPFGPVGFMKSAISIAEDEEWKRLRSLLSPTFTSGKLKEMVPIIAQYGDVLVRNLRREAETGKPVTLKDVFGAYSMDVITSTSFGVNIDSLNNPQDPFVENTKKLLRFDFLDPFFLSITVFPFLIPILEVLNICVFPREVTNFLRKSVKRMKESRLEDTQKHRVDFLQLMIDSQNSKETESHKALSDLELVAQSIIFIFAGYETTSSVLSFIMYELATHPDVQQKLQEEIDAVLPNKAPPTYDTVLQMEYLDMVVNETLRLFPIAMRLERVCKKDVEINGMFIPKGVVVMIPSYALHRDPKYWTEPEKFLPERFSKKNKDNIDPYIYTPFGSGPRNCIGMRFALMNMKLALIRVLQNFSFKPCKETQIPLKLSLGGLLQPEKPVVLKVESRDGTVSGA
compound,measurement,setting,value
COc1ccc(C2C(C#N)=C(N)OC3=C2C(=O)CC(C)(C)C3)cc1 (centres undefined),EC50,[1],> 300 µM (not active)
same,EC50,[2],69.7 µM (active)
Cn1c2ccccc2c2cc(C(=O)N3CCOCC3)sc21,AC50,Cytochrome P450 3A4,28.2 µM (inconclusive)
same,AC50,Cytochrome P450 2C9,inconclusive
same,AC50,Cytochrome P450 2C19,39.8 µM (inconclusive)
CCOc1ccccc1N/C=C(\C#N)c1nc2ccccc2n1C,EC50,[3],> 120 µM (not active)
same,EC50,H4,> 120 µM (not active)
COc1ccc(/C=C2\SC(=S)N(CCCC(=O)NC3CCCC3)C2=O)cc1OC,EC50,[1],55.7 µM (inconclusive)
same,EC50,[2],57.5 µM (active)
CC(=O)c1ccc(Oc2ncnc3sccc23)cc1,EC50,[3],9.03 µM (active)
same,EC50,H4,33.2 µM (active)
COc1ccc(-c2nc(C#N)c(NCc3ccco3)o2)cc1,EC50,[3],31.9 µM (active)
same,EC50,H4,7.92 µM (active)
COc1ccccc1C(CCNCc1ccc(N(C)C)cc1)c1ccc(OC(C)C)cc1 (centres undefined),AC50,[4],12 µM (active)
same,AC50,INS1,7.11 µM (active)
same,AC50,[5],12.5 µM (active)
same,EC50,[6],> 60 µM (not active)
same,IC50,Nonstructural protein 1,8.29 µM (active)
same,AC50,[7],6.48 µM (active)
same,EC50,[8],7.66 µM (active)
same,AC50,[9],5.31 µM (active)
same,EC50,[10],> 120 µM (not active)
COCCCNCCCCOc1c(Cl)cc(C)cc1Br.O=C(O)C(=O)O,IC50,[11],64.1 µM (active)
same,AC50,Cytochrome P450 2C9,inconclusive
CCOC(=O)N1CCN(C2=Nc3cccc4cccc2c34)CC1,EC50,[1],60.2 µM (active)
same,EC50,[2],> 300 µM (not active)
CCCCCc1cc(=O)oc2c(C(CCN3CCCC3)c3ccc(N(C)C)cc3)c(OC)cc(OC)c12 (centres undefined),IC50,Nonstructural protein 1,6.41 µM (active)
O=C(Nc1nnc(SCc2c(Cl)cccc2Cl)s1)C1CCCO1 (centres undefined),AC50,Cytochrome P450 2C9,inconclusive
same,AC50,Cytochrome P450 2C19,14.1 µM (inconclusive)
Cc1ccc(C(=O)NC(=S)Nc2ccc3c(c2)OCCO3)c(C)c1,AC50,Cytochrome P450 2C9,inconclusive
same,AC50,Cytochrome P450 2C19,17.8 µM (inconclusive)
COc1ccc(OC)c(N2C(=O)NC(=O)/C(=C\c3c[nH]c4ccccc34)C2=O)c1,EC50,[1],> 300 µM (not active)
same,EC50,[2],> 300 µM (not active)
N=c1c2c(-c3ccccc3)c(-c3ccccc3)n(Cc3ccco3)c2ncn1Cc1ccccc1,EC50,[12],1.68 µM (active)
same,AC50,INS1,6.08 µM (active)
same,EC50,Protein RecA,6.7 µM (active)
same,AC50,[13],3.08 µM (active)
same,EC50,[14],1.35 µM (active)
O=S(=O)(c1ccccc1)N1CCC2(CC1)CN(c1ccncc1)C2,AC50,Cytochrome P450 3A4,39.8 µM (inconclusive)
same,AC50,Cytochrome P450 2C9,inconclusive
COc1ccc(C2Oc3ccccc3C3=C2C(c2cccs2)n2ncnc2N3)cc1 (centres undefined),EC50,[12],8.88 µM (active)
same,CC50,[15],16.8 µM (active)
same,EC50,[14],7.97 µM (active)
Cc1ccc(C)n1-c1ccc(C(=O)O)cc1,EC50,[1],20.5 µM (inconclusive)
same,EC50,[2],13.9 µM (active)
Cc1ccc(-n2nc(C)c(/C=N/NC(=O)c3ccc(O)cc3O)c2O)cc1,EC50,[1],22 µM (active)
same,EC50,[2],76.9 µM (active)
same,IC50,Nonstructural protein 1,4.44 µM (active)
CC1=C/C(=N\Nc2ccccc2[N+](=O)[O-])CC(C)(C)C1,IC50,Nonstructural protein 1,14.9 µM (active)
COc1ccc(Cc2nnc(N/N=C/c3ccccc3O)nc2O)cc1OC,AC50,INS1,0.834 µM (active)
same,IC50,Nonstructural protein 1,1.42 µM (active)
same,AC50,[9],3.66 µM (active)
COc1cc(/C=N/NC(=O)CN2CC(c3ccccc3)CC2=O)ccc1OC(=O)N(C)C (centres undefined),AC50,Cytochrome P450 2C9,inconclusive
same,AC50,Cytochrome P450 2C19,22.4 µM (inconclusive)
